Patent US11953435B2, “Zinc-responsive fluorophores” (Northwestern University, priority 2019, dated 2024)

Experiment: Octanol-water partition coefficient (log P)
Assay type: physicochemical
Settings: 1:1 HEPES buffer and 1-octanol
Description: Aqueous solutions were prepared by using de-ionized water with resistivity […], obtained using a Milli-Q water purification system. In order to properly compare the photophysical properties of ZincBY-2, ZincBY-3, and ZincBY-4 to ZincBY-1, the photophysical properties of ZincBY-1 we remeasured. Tested values differed from the previously published values (Ref. B2; incorporated by reference in its entirety). It was determined that copper was present in the aqueous buffer used for in vitro analysis of the previous samples. The corrected values are used herein, utilizing buffers that are copper-free. Stock solutions of ZincBY-1, ZincBY-2, ZincBY-3, and ZincBY-4 were prepared at concentrations of 5 mM and stored at −20° C. in aliquots that were used immediately after thawing for each experiment. Unless otherwise stated, all spectroscopic methods were conducted in aqueous buffer containing 50 mM HEPES (pH 7.2) and 0.1 M KNO3. […] Fluorescence spectra were acquired using a PerkinElmer LS 55 fluorescence spectrophotometer. […] Quantum yields for apo and holo ZincBY-1, ZincBY-2, ZincBY-3, and ZincBY-4 were determined by plotting absorbance vs. fluorescence intensity of solutions containing ZincBY-1, ZincBY-2, ZincBY-3, or ZincBY-4 at probe concentrations ranging from 50-250 nM. […] Fluorescein dissolved in 0.1 N NaOH was used as the quantum yield standard, using a literature-determined quantum yield of 0.95.^3 For all fluorophore solutions, fluorescence excitation was set at 490 nm and fluorescence emission was integrated from 510 nm to 650 nm. […] Fluorescence spectra were recorded using zinc probes (ZincBY-1, ZincBY-2, ZincBY-3, or ZincBY-4; 200 nM) and ZnSO4 (various concentrations). […] Free Zn^2+ was calculated according to a previously reported method (Ref. B4; incorporated by reference in its entirety). […] The fluorescence spectra of zinc probes (ZincBY-2, ZincBY-3, or ZincBY-4; 200 nM) wasere measured at various pH values (4.5-11). […] The fluorescence spectra were compared to that of ZincBY-2 (200 nM), ZincBY-3 (200 nM), or ZincBY-4 (200 nM) in the presence of 10 μM TPEN. […]

Row | Structure (SMILES) | LogP
1 | Cc1cc(C)c(C2=C3C=CC(OCCN=[N+]=[N-])=[N+]3[B-](F)(F)n3c2ccc3N(CCN(Cc2ccccn2)Cc2ccccn2)Cc2ccccn2)c(C)c1 [ZincBY-2, N1-(7-(2-azidoethoxy)-5,5-difluoro-10-mesityl-5H-4λ4,5λ4-dipyrrolo[1,2-c:2′,1′-f][1,3,2]diazaborinin-3-yl)-N1,N2,N2-tris(pyridin-2-ylmethyl)ethane-1,2-diamine] | ~1.25
2 | Cc1cc(C)c(C2=C3C=CC(OCCN)=[N+]3[B-](F)(F)n3c2ccc3N(CCN(Cc2ccccn2)Cc2ccccn2)Cc2ccccn2)c(C)c1 [ZincBY-3, N1-(7-(2-aminoethoxy)-5,5-difluoro-10-mesityl-5H-4λ4,5λ4-dipyrrolo[1,2-c:2′,1′-f][1,3,2]diazaborinin-3-yl)-N1,N2,N2-tris(pyridin-2-ylmethyl)ethane-1,2-diamine] | ~0.15
3 | CC(=O)NCCOc1ccc2n1[B-](F)(F)[N+]1=C(N(CCN(Cc3ccccn3)Cc3ccccn3)Cc3ccccn3)C=CC1=C2c1c(C)cc(C)cc1C [ZincBY-4, N-(2-((7-((2-(bis(pyridin-2-ylmethyl)amino)ethyl)(pyridin-2-ylmethyl)amino)-5,5-difluoro-10-mesityl-5H-5λ4,6λ4-dipyrrolo[1,2-c:2′,1′-f][1,3,2]diazaborinin-3-yl)oxy)ethyl)acetamide] | ~0.33
